Literature values in patent US20250092340A1, “METHOD FOR INDUSTRIALLY PRODUCING MOGROSIDE, FRUCTUS MOMORDICAE SUGAR/WINE AND MANNITOL FROM FRESH FRUCTUS MOMORDICAE” (priority 2022, published 2025).

Conditions: background statement

Structure (SMILES)	sweetness relative to sucrose
C[C@H](CC[C@@H](O[C@@H]1O[C@H](CO)[C@@H](O)[C@H](O)[C@H]1O[C@@H]1O[C@H](CO)[C@@H](O)[C@H](O)[C@H]1O)C(C)(C)O)[C@H]1CC[C@@]2(C)[C@H]3CC=C4[C@@H](CC[C@H](O[C@@H]5O[C@H](CO[C@@H]6O[C@H](CO)[C@@H](O)[C@H](O)[C@H]6O)[C@@H](O)[C@H](O)[C@H]5O)C4(C)C)[C@]3(C)[C@H](O)C[C@]12C [mogroside IV]	126 folds of that of sucrose
C[C@H](CC[C@@H](O[C@@H]1O[C@H](CO[C@@H]2O[C@H](CO)[C@@H](O)[C@H](O)[C@H]2O)[C@@H](O)[C@H](O)[C@H]1O[C@@H]1O[C@H](CO)[C@@H](O)[C@H](O)[C@H]1O)C(C)(C)O)[C@H]1CC[C@@]2(C)[C@@H]3CC=C4[C@@H](CC[C@H](O[C@@H]5O[C@H](CO[C@@H]6O[C@H](CO)[C@@H](O)[C@H](O)[C@H]6O)[C@@H](O)[C@H](O)[C@H]5O)C4(C)C)[C@]3(C)[C@H](O)C[C@]12C [mogroside V]	256-344 folds of that of sucrose
